Columns and labels:
Format in all cases: in vivo
[1] = tested on: Frankliniella occidentalis; assay: Example 2: bell peppers against Frankliniella occidentalis; conditions: Acrinathrin 60, (I-9) 54, (I-4) 60 g a.s./ha, (I-9)/(I-4) 240 SC + 0.1% rapeseed oil methyl ester
Protocol: Plots 10 m^2 in size which are planted with bell peppers cv. “Zingaro” are treated, in three replications, against Frankliniella occidentalis. The application is effected with a knapsack sprayer which is operated with pressurized air. Here, the active substances Example (I-9) (240 SC) and Example (I-4) (240 SC), in the form of a tank mix together with 0.1% a.s. rapeseed oil methyl ester (500 EW) and the commercial standard acrinathrin (075 EW), are applied at the specified application rates. Two applications are carried out at an interval of 24 days, with a water application rate of 1000 l/ha.
The test is evaluated 17 and 21 days after treatment 1 and 4 days after treatment 2 by scoring the destruction of the animals (nymphs) on the flowers.

[2] = tested on: Ceratitis capitata; assay: Example 20: peach trees against Ceratitis capitata; conditions: animals on fruits
Protocol: Peach trees cv. “Oom Sarel” which are approximately 10 years old are treated, in three replications, against Ceratitis capitata. The application is carried out with a high-pressure sprayer or a knapsack sprayer which is operated with pressurized air. Here, the active substance Example (I-4) (150 OD) and the commercial standard Fenthion (500 EC) are tested at the specified application rates. The water application rate is 2500 l/ha. Three applications are carried out at an interval of 7 and 19 days, respectively.
The test is evaluated 9 and 16 days after treatment 3 by scoring the destruction rate of the animals on the fruits with the aid of the Abbott formula.

[3] = tested on: Dacus ciliatus; assay: Example 22A: bottle gourds against Dacus ciliatus
Protocol: Plots approx. 10 m^2 in size which are planted with bottle gourds cv. “Waltham” are treated, in three replications, against Dacus ciliatus. The application is carried out with a motor-operated knapsack sprayer. Here, the active substance Example (I-4) (150 OD) and the commercial standard Fenthion (500 EC) are tested at the specified application rates. Three applications are carried out at in each case an interval of 7 days. The water application rate is approx. 500 l/ha.
The test is evaluated 8, 14 and 21 days after treatment 1 by scoring the infestation of the fruits.

[4] = tested on: olive fruit fly (Dacus oleae); assay: Example 22B: laboratory experiment, olives against olive fruit fly; conditions: olives treated three days after oviposition; Imidacloprid (200 SL) 0.01 %, (I-4) (100 OD) 0.02 %, Fenthion (500 EC) 0.05 %; untreated 84.4
Protocol: In a laboratory experiment, 40 olives are treated, in four replications, against the olive fruit fly (Dacus oleae) three days after oviposition. Here, the active substance (I-4) (100 OD) and the commercial standards Fenthion (500 EC) and Imidacloprid (200 SL) are tested at the specified application rates.
The test is evaluated 14 days after oviposition by counting the number of feeding tunnels (larval development completed), while the absence of such feeding tunnels indicates the efficacy against the larvae.

[5] = tested on: Liriomyza sp.; assay: Example 18: beans against Liriomyza sp.; conditions: for Efficacy (% Abbott) 2 d: 2 d after first treatment, 10 leaves, Cyromazine (WP 75) 130, (I-4) (150 OD) 100, Abamectin (EC 018) 14.4 g a.s./ha, three applications, 7-day intervals; for Efficacy (% Abbott) 7 d: 7 d after first treatment; for Efficacy (% Abbott) 7 d / Efficacy (% Abbott) 12 d / Efficacy (% Abbott) 18 d / Efficacy (% Abbott) 20 d / Efficacy (% Abbott) 25 d: Cyromazine 130, (I-4) 100, Abamectin 14.4 g a.s./ha; for Efficacy (% Abbott) 12 d: 12 d after first treatment; for Efficacy (% Abbott) 18 d: 18 d after first treatment; for Efficacy (% Abbott) 20 d: 20 d after first treatment; for Efficacy (% Abbott) 25 d: 25 d after first treatment
Protocol: Plots approx. 10 m^2 in size which are planted with beans cv. “Lago Azul” are treated, in three replications, against Liriomyza sp. Here, the active substance Example (I-4) (150 OD) and the commercial standards Cyromazine (WP 75) and Abamectin (EC 018) are applied at the specified application rates, using a knapsack sprayer which is operated with pressurized gas. The water application rate is 400 and 500 l/ha., respectively. Three applications are carried out at intervals of in each case 7 days.
The destruction rate in percent is determined on in each case 10 leaves. 2, 7, 12, 18, 20 and 25 days after the first treatment, the following results are obtained: […]

[6] = tested on: Idioscopus clypealis; assay: Example 14: mango tree against Idioscopus clypealis; conditions: nymphs on infructescences
Protocol: A mango tree which is approximately 14 years old is treated, in three replications, against Idioscopus clypealis. The application is carried out with a high-pressure sprayer. Here, the active substance Example (I-4) (240 SC), in a tank mix with 0.2% a.s. rapeseed oil methyl ester (500 EW) and the commercial standards Imidacloprid (100 SL) and Pymetrozine (WP 25), is tested at the specified application rates. The amount of spray mixture is 10 l/tree. Five treatments are carried out at intervals of 7, 14, 21 and 28 days.
The test is evaluated in each case 7 days after treatments 3 to 5 by scoring the destruction rate of the nymphs on the infructescences.

[7] = tested on: Frankliniella occidentalis; assay: Example 5: aubergines against Frankliniella occidentalis; conditions: mixed populations on leaves
Protocol: Plots 6 m^2 in size which are planted with aubergines cv. “Soraya” are treated, in three replications, against Frankliniella occidentalis. The application is effected with a motor-operated knapsack sprayer. Here, the active substances Example (I-4) (240 SC) and Example (I-9) (240 SC), in a tank mix together with 0.1% a.s. rapeseed oil methyl ester (500 EW) and the commercial standard Spinosad (480 SC), are tested at the specified application rates. The water application rate is 1500 l/ha.
The test is evaluated 25, 32 and 39 days after the treatment by scoring the destruction rate of the mixed populations on the leaves.

[8] = tested on: Scirtothrips dorsalis; assay: Example 10: tea plants against Scirtothrips dorsalis; conditions: 7 d after treatment, nymphs, Ethiprole (SC10) 0.005, (I-4) (100 OD) 0.01, Imidacloprid (50 WG) 0.005 % a.s.
Protocol: Plots approx. 5 m^2 in size which are planted with tea plants cv. “Yabukita” which are approximately 18 years old are treated, in three replications, against Scirtothrips dorsalis. Here, the active substance Example (I-4) (100 OD) is tested, at the specified application rates, against the commercial standards Ethiprole (SC10 flowable) and Imidacloprid (50 WG). The application is carried out with a sprayer which is operated with pressurized air. The water application rate is 4500 l/ha. The test is evaluated 7 days after the treatment by scoring the destruction rate of the nymphs and the plants.

[9] = tested on: Empoasca biguttula; assay: Example 12: cotton against Empoasca biguttula
Protocol: Plots 10 m^2 in size which are planted with cotton are treated, in three replications, against Empoasca biguttula. The application is carried out with a knapsack sprayer operated with pressurized air. Here, the active substance Example (I-4) (240 SC), in a tank mix with 0.2% a.s. rapeseed oil methyl ester (500 EW), is tested against the commercial standards Imidacloprid (SL 100) and Buprofezin (WP50) at the specified application rates. Two applications are carried out at an interval of 7 days. The water application rate is 750 l/ha.
The test is evaluated 3, 7, 14 and 21 days after the second treatment by counting the live animals. Thereafter, the efficacy is calculated in percent, using the formula of Henderson and Tilton.

[10] = tested on: Ceutorhynchus napi; assay: Example 26-A: oilseed rape against Ceutorhynchus napi; conditions: 55 d after treatment, larvae, Deltamethrin (25 EC) 5, (I-4) (+ 0.2% rapeseed oil methyl ester) 72, Thiacloprid (OD 240) 72, Lambda-cyhalothrin 5 g a.s./ha
Protocol: Plots approx. 25 m^2 in size which are planted with oilseed rape cv. “Artus” are treated, in four replications, against Ceutorhynchus napi. The application is carried out with a motor-operated knapsack sprayer. Here, the active substance Example (I-4), in a tank mix with 0.2% a.s. rapeseed oil methyl ester (500 EW) and the commercial standards Deltamethrin (25 EC), lambda-cyhalothrin (S100) and Thiacloprid (OD 240), is tested at the specified application rates. The water application rate is 250 l/ha.
The test is evaluated 55 days after the treatment by scoring the destruction rate of the larvae on the plants.

[11] = Imidacloprid 0.00025 %, (I-4) 0.0016 %, Pymetrozine 0.002 %

CC1(C)[C@H](C(=O)O[C@H](C#N)c2cccc(Oc3ccccc3)c2)[C@@H]1/C=C\C(=O)OC(C(F)(F)F)C(F)(F)F [Acrinathrin, acrinathrin]
Efficacy (% Abbott) 4 d (2) ([1]; 4 d after treatment 2, nymphs on flowers): 87 % Abbott | Efficacy (% Abbott) 17 d (1) ([1]; 17 d after treatment 1, nymphs on flowers): 98 % Abbott | Efficacy (% Abbott) 21 d (1) ([1]; 21 d after treatment 1, nymphs on flowers): 91 % Abbott

COP(=S)(OC)Oc1ccc(SC)c(C)c1 [Fenthion]
Efficacy (% Abbott) 16 d after treatment 3 ([2]; Fenthion 1700, (I-4) 100 g a.s./ha): 88.9 % Abbott | Efficacy (% Abbott) 9 d after treatment 3 ([2]; Fenthion (500 EC) 1700, (I-4) (150 OD) 100 g a.s./ha): 86.7 % Abbott | Efficacy (% Abbott) 8 d ([3]; 8 d after treatment 1, infestation of fruits, Fenthion (500 EC) 300, (I-4) (150 OD) 200 g a.s./ha, three applications, 7-day intervals): 59.6 % Abbott | Efficacy (% Abbott) 14 d ([3]; 14 d after treatment 1, Fenthion 300, (I-4) 200 g a.s./ha): 48.9 % Abbott | Efficacy (% Abbott) 21 d ([3]; 21 d after treatment 1, Fenthion 300, (I-4) 200 g a.s./ha): 60.3 % Abbott | Number of feeding tunnels (%) 14 days after oviposition [4]: 1.9%

Abamectin
Efficacy (% Abbott) 2 d [5]: 36 % Abbott | Efficacy (% Abbott) 7 d [5]: 80 % Abbott | Efficacy (% Abbott) 12 d [5]: 52 % Abbott | Efficacy (% Abbott) 18 d [5]: 70 % Abbott | Efficacy (% Abbott) 20 d [5]: 43 % Abbott | Efficacy (% Abbott) 25 d [5]: 60 % Abbott

Nc1nc(N)nc(NC2CC2)n1 [Cyromazine]
Efficacy (% Abbott) 2 d [5]: 44 % Abbott | Efficacy (% Abbott) 7 d [5]: 61 % Abbott | Efficacy (% Abbott) 12 d [5]: 42 % Abbott | Efficacy (% Abbott) 18 d [5]: 54 % Abbott | Efficacy (% Abbott) 20 d [5]: 32 % Abbott | Efficacy (% Abbott) 25 d [5]: 0 % Abbott

CC1=NNC(=O)N(/N=C/c2cccnc2)C1 [Pymetrozine]
Efficacy (% Abbott) 7 days after treatment 4 [6, 11]: 98.6 % Abbott | Efficacy (% Abbott) 7 days after treatment 5 [6, 11]: 94.8 % Abbott | Efficacy (% Abbott) 7 days after treatment 3 ([6]; Imidacloprid (100 SL) 0.00025 %, (I-4) (240 SC + 0.2% rapeseed oil methyl ester) 0.0016 %, Pymetrozine (WP 25) 0.002 %): 70.9 % Abbott

Spinosad
Efficacy (% Abbott) 25 d ([7]; 25 d after treatment, Spinosad (480 SC) 0.012, (I-9) 0.0054, (I-4) 0.012 % a.s., 240 SC + 0.1% rapeseed oil methyl ester): 94.7 % Abbott | Efficacy (% Abbott) 32 d ([7]; 32 d after treatment, Spinosad 0.012, (I-9) 0.0054, (I-4) 0.012 % a.s.): 89.3 % Abbott | Efficacy (% Abbott) 39 d ([7]; 39 d after treatment, Spinosad 0.012, (I-9) 0.0054, (I-4) 0.012 % a.s.): 95.3 % Abbott

CC[S+]([O-])c1c(C#N)nn(-c2c(Cl)cc(C(F)(F)F)cc2Cl)c1N (stereo not drawn) [Ethiprole]
Efficacy (% Abbott) 7 d [8]: 100 % Abbott

CC(C)N1C(=O)N(c2ccccc2)CS/C1=N\C(C)(C)C [Buprofezin]
Efficacy (% H + T) 3 d ([9]; 3 d after second treatment, Henderson and Tilton, Imidacloprid (SL 100) 30, (I-4) (240 SC + 0.2% rapeseed oil methyl ester) 24, Buprofezin (WP50) 50 g a.s./ha): 96.5 % H + T | Efficacy (% H + T) 7 d ([9]; 7 d after second treatment, Imidacloprid 30, (I-4) 24, Buprofezin 50 g a.s./ha): 94.7 % H + T | Efficacy (% H + T) 14 d ([9]; 14 d after second treatment, Imidacloprid 30, (I-4) 24, Buprofezin 50 g a.s./ha): 90.1 % H + T | Efficacy (% H + T) 21 d ([9]; 21 d after second treatment, Imidacloprid 30, (I-4) 24, Buprofezin 50 g a.s./ha): 67.1 % H + T

CC1(C)[C@H](C(=O)O[C@H](C#N)c2cccc(Oc3ccccc3)c2)[C@@H]1/C=C(\Cl)C(F)(F)F (racemic) [Lambda-cyhalothrin, lambda-cyhalothrin]
Efficacy (% Abbott) 55 d [10]: 89.5 % Abbott

Reference: patent US20090298903A1, “USE OF TETRAMIC ACID DERIVATIVES FOR INSECT CONTROL” (priority 2006, published 2009)
